Tests used:
Test in all cases: cells
[1] = system: COLO-824; format: functional, cell-based, Homo sapiens; conditions: Homo sapiens, COLO-824
Description: SANGER: Inhibition of human COLO-824 cell growth in a cell viability assay.

[2] = system: COR-L88; format: functional, cell-based, Homo sapiens; conditions: Homo sapiens, COR-L88;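 further: growth inhibition of COR-L88 cells, read out with a cell viability assay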
Description: SANGER: Inhibition of human COR-L88 cell growth in a cell viability assay.

[3] = system: D-502MG; format: functional, cell-based, Homo sapiens; conditions: Homo sapiens, D-502MG
Description: SANGER: Inhibition of human D-502MG cell growth in a cell viability assay.

[4] = system: DJM-1; format: functional, cell-based, Homo sapiens; conditions: Homo sapiens, DJM-1;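 further: growth inhibition of human DJM-1 cells, read out by a cell viability assay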
Description: SANGER: Inhibition of human DJM-1 cell growth in a cell viability assay.

[5] = system: DMS-114; format: functional, cell-based, Homo sapiens; conditions: Homo sapiens, DMS-114
[6] = system: ES5; format: functional, cell-based, Homo sapiens; conditions: Homo sapiens, ES5;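 further: growth inhibition of human ES5 cells, read out by a cell viability assay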
Description: SANGER: Inhibition of human ES5 cell growth in a cell viability assay.

[7] = system: EW-18; format: functional, cell-based, Homo sapiens; conditions: Homo sapiens, EW-18;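 further: growth inhibition of EW-18 cells, read out by a cell viability assay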
Description: SANGER: Inhibition of human EW-18 cell growth in a cell viability assay.

[8] = system: GI-1; format: functional, cell-based, Homo sapiens; conditions: Homo sapiens, GI-1;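 further: growth inhibition of human GI-1 cells, measured with a cell viability readout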
Description: SANGER: Inhibition of human GI-1 cell growth in a cell viability assay.

[9] = system: HC-1; format: functional, cell-based, Homo sapiens; conditions: Homo sapiens, HC-1;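 further: growth inhibition of HC-1 cells measured by a cell viability assay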
Description: SANGER: Inhibition of human HC-1 cell growth in a cell viability assay.

[10] = system: HCC1187; format: functional, cell-based, Homo sapiens; conditions: Homo sapiens, HCC1187;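 further: growth inhibition of HCC1187 cells, read out with a cell viability assay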
Description: SANGER: Inhibition of human HCC1187 cell growth in a cell viability assay.

[11] = system: HH; format: functional, cell-based, Homo sapiens; conditions: Homo sapiens, HH
Description: SANGER: Inhibition of human HH cell growth in a cell viability assay.

[12] = system: HuTu80; format: functional, cell-based, Homo sapiens, HUTU-80; conditions: Homo sapiens, HuTu80;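 further: growth inhibition of HuTu80 human cells, determined with a cell viability readout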
Description: SANGER: Inhibition of human HUTU-80 cell growth in a cell viability assay.

[13] = system: K5; format: functional, cell-based, Homo sapiens; conditions: Homo sapiens, K5
Description: SANGER: Inhibition of human K5 cell growth in a cell viability assay.

[14] = system: KALS-1; format: functional, cell-based, Homo sapiens; conditions: Homo sapiens, KALS-1;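 further: growth inhibition of KALS-1 cells, determined with a cell viability assay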
Description: SANGER: Inhibition of human KALS-1 cell growth in a cell viability assay.

[15] = system: KARPAS-299; format: functional, cell-based, Homo sapiens; conditions: Homo sapiens, KARPAS-299
Description: SANGER: Inhibition of human KARPAS-299 cell growth in a cell viability assay.

[16] = system: KE-37; format: functional, cell-based, Homo sapiens; conditions: Homo sapiens, KE-37;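 further: growth inhibition of KE-37 cells, read out with a cell viability assay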
Description: SANGER: Inhibition of human KE-37 cell growth in a cell viability assay.

[17] = system: KM-H2; format: functional, cell-based, Homo sapiens; conditions: Homo sapiens, KM-H2;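 further: growth inhibition of KM-H2 cells, read out by a cell viability assay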
Description: SANGER: Inhibition of human KM-H2 cell growth in a cell viability assay.

[18] = system: KNS-42; format: functional, cell-based, Homo sapiens; conditions: Homo sapiens, KNS-42;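 further: growth inhibition of KNS-42 cells, read out with a cell viability assay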
Description: SANGER: Inhibition of human KNS-42 cell growth in a cell viability assay.

[19] = system: LB2518-MEL; format: functional, cell-based, Homo sapiens; conditions: Homo sapiens, LB2518-MEL;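 further: growth inhibition of human LB2518-MEL cells, measured with a cell viability assay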
Description: SANGER: Inhibition of human LB2518-MEL cell growth in a cell viability assay.

[20] = system: LB771-HNC; format: functional, cell-based, Homo sapiens; conditions: Homo sapiens, LB771-HNC;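 further: growth inhibition of LB771-HNC human cells, read out with a cell viability assay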
Description: SANGER: Inhibition of human LB771-HNC cell growth in a cell viability assay.

[21] = system: LB831-BLC; format: functional, cell-based, Homo sapiens; conditions: Homo sapiens, LB831-BLC;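 further: growth inhibition of LB831-BLC cells, read out with a cell viability assay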
Description: SANGER: Inhibition of human LB831-BLC cell growth in a cell viability assay.

[22] = system: LOX IMVI; format: functional, cell-based, Homo sapiens; conditions: Homo sapiens, LOX IMVI
Description: SANGER: Inhibition of human LOXIMVI cell growth in a cell viability assay.

[23] = system: LS-1034; format: functional, cell-based, Homo sapiens; conditions: Homo sapiens, LS-1034
Description: SANGER: Inhibition of human LS-1034 cell growth in a cell viability assay.

[24] = system: LU-139; format: functional, cell-based, Homo sapiens; conditions: Homo sapiens, LU-139
Description: SANGER: Inhibition of human LU-139 cell growth in a cell viability assay.

[25] = system: Lu-65; format: functional, cell-based, Homo sapiens; conditions: Homo sapiens, Lu-65;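 further: growth inhibition of Lu-65 cancer cells, read out by a cell viability assay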
Description: SANGER: Inhibition of human LU-65 cell growth in a cell viability assay.

[26] = system: MHH-NB-11; format: functional, cell-based, Homo sapiens; conditions: Homo sapiens, MHH-NB-11;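 further: growth inhibition of human MHH-NB-11 cells, read out by a cell viability assay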
Description: SANGER: Inhibition of human MHH-NB-11 cell growth in a cell viability assay.

[27] = system: MOLT-16; format: functional, cell-based, Homo sapiens; conditions: Homo sapiens, MOLT-16;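 further: growth inhibition of human MOLT-16 cells, read out with a cell viability assay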
Description: SANGER: Inhibition of human MOLT-16 cell growth in a cell viability assay.

[28] = system: MSTO-211H; format: functional, cell-based, Homo sapiens; conditions: Homo sapiens, MSTO-211H
Description: SANGER: Inhibition of human MSTO-211H cell growth in a cell viability assay.

[29] = system: NB10; format: functional, cell-based, Homo sapiens; conditions: Homo sapiens, NB10;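 further: growth inhibition of NB10 cells, read out by a cell viability assay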
Description: SANGER: Inhibition of human NB10 cell growth in a cell viability assay.

[30] = system: NCI-H1648; format: functional, cell-based, Homo sapiens; conditions: Homo sapiens, NCI-H1648;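 further: cell viability assay measuring inhibition of NCI-H1648 cell growth, from the Sanger screening data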
Description: SANGER: Inhibition of human NCI-H1648 cell growth in a cell viability assay.

[31] = system: NCI-H1650; format: functional, cell-based, Homo sapiens; conditions: Homo sapiens, NCI-H1650;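 further: growth inhibition of human NCI-H1650 cells measured by a cell viability assay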
Description: SANGER: Inhibition of human NCI-H1650 cell growth in a cell viability assay.

[32] = system: NCI-H226; format: functional, cell-based, Homo sapiens; conditions: Homo sapiens, NCI-H226;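 further: cell viability read-out used to gauge growth inhibition of the cells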
Description: SANGER: Inhibition of human NCI-H226 cell growth in a cell viability assay.

[33] = system: NCI-H82; format: functional, cell-based, Homo sapiens; conditions: Homo sapiens, NCI-H82;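 further: growth inhibition of NCI-H82 cells, measured with a cell viability readout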
Description: SANGER: Inhibition of human NCI-H82 cell growth in a cell viability assay.

[34] = system: SNU-5; format: functional, cell-based, Homo sapiens; conditions: Homo sapiens, SNU-5;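 further: cell viability readout used to measure growth inhibition in human NCI-SNU-5 cells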
Description: SANGER: Inhibition of human NCI-SNU-5 cell growth in a cell viability assay.

[35] = system: NEC8; format: functional, cell-based, Homo sapiens; conditions: Homo sapiens, NEC8;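 further: growth inhibition of human NEC8 cells, read out by a cell viability assay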
Description: SANGER: Inhibition of human NEC8 cell growth in a cell viability assay.

[36] = system: OMC-1; format: functional, cell-based, Homo sapiens; conditions: Homo sapiens, OMC-1;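 further: growth inhibition of the OMC-1 cell line, measured by a cell viability assay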
Description: SANGER: Inhibition of human OMC-1 cell growth in a cell viability assay.

[37] = system: OVCAR-4; format: functional, cell-based, Homo sapiens; conditions: Homo sapiens, OVCAR-4;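 further: growth inhibition of human OVCAR-4 cells, measured with a cell viability assay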
Description: SANGER: Inhibition of human OVCAR-4 cell growth in a cell viability assay.

[38] = system: RS4-11; format: functional, cell-based, Homo sapiens; conditions: Homo sapiens, RS4-11;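 further: growth inhibition of RS4-11 cells, read out by a cell viability assay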
Description: SANGER: Inhibition of human RS4-11 cell growth in a cell viability assay.

[39] = system: Ramos-2G6-4C10; format: functional, cell-based, Homo sapiens; conditions: Homo sapiens, Ramos-2G6-4C10;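 further: growth inhibition of the cell line, measured by a cell viability read-out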
Description: SANGER: Inhibition of human Ramos-2G6-4C10 cell growth in a cell viability assay.

[40] = system: SCH; format: functional, cell-based, Homo sapiens; conditions: Homo sapiens, SCH;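 further: growth inhibition of human SCH cells, read out in a cell viability assay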
Description: SANGER: Inhibition of human SCH cell growth in a cell viability assay.

[41] = system: SJSA-1; format: functional, cell-based, Homo sapiens; conditions: Homo sapiens, SJSA-1;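 further: growth inhibition of human SJSA-1 cells, read out through a cell viability measurement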
Description: SANGER: Inhibition of human SJSA-1 cell growth in a cell viability assay.

[42] = system: SNB-75; format: functional, cell-based, Homo sapiens; conditions: Homo sapiens, SNB-75;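 further: cell viability assay measuring growth inhibition of human SNB-75 cells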
Description: SANGER: Inhibition of human SNB75 cell growth in a cell viability assay.

[43] = system: ALL-PO; format: functional, cell-based, Homo sapiens; conditions: Homo sapiens, ALL-PO;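 further: growth inhibition of ALL-PO cells, read out by a cell viability assay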
Description: SANGER: Inhibition of human ALL-PO cell growth in a cell viability assay.

[44] = system: AM-38; format: functional, cell-based, Homo sapiens; conditions: Homo sapiens, AM-38;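 further: growth inhibition of AM-38 cells of human origin, read out by a cell viability assay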
Description: SANGER: Inhibition of human AM-38 cell growth in a cell viability assay.

[45] = system: ATN-1; format: functional, cell-based, Homo sapiens; conditions: Homo sapiens, ATN-1;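 further: growth inhibition of human ATN-1 cells, read out with a cell viability assay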
Description: SANGER: Inhibition of human ATN-1 cell growth in a cell viability assay.

[46] = system: BB30-HNC; format: functional, cell-based, Homo sapiens; conditions: Homo sapiens, BB30-HNC;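 further: growth inhibition of the cultured cell line, read out by a cell viability assay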
Description: SANGER: Inhibition of human BB30-HNC cell growth in a cell viability assay.

[47] = system: TE-11; format: functional, cell-based, Homo sapiens; conditions: Homo sapiens, TE-11;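 further: growth inhibition of human TE-11 cells, read out by a cell viability assay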
Description: SANGER: Inhibition of human TE-11 cell growth in a cell viability assay.

[48] = system: TGBC24TKB; format: functional, cell-based, Homo sapiens; conditions: Homo sapiens, TGBC24TKB;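 further: growth inhibition of human TGBC24TKB cells, read out with a cell viability assay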
Description: SANGER: Inhibition of human TGBC24TKB cell growth in a cell viability assay.

[49] = system: TGW; format: functional, cell-based, Homo sapiens; conditions: Homo sapiens, TGW;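 further: growth inhibition of human TGW cells, read out with a cell viability assay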
Description: SANGER: Inhibition of human TGW cell growth in a cell viability assay.

Nc1ccn([C@@H]2O[C@H](CO)[C@@H](O)C2(F)F)c(=O)n1 [GEMCITABINE]
IC50 [1]: > 1020 nM | IC50 [2]: > 1020 nM | IC50 [3]: > 1020 nM | IC50 [4]: 21.6 nM | IC50 [5]: > 1020 nM | IC50 [6]: > 1020 nM | IC50 [7]: 72.8 nM | IC50 [8]: 2.76 nM | IC50 [9]: < 4 nM | IC50 [10]: > 1020 nM | IC50 [11]: 35.1 nM | IC50 [12]: < 4 nM | IC50 [13]: 683 nM | IC50 [14]: 21.4 nM | IC50 [15]: 252 nM | IC50 [16]: < 4 nM | IC50 [17]: 261 nM | IC50 [18]: 736 nM | IC50 [19]: 64.5 nM | IC50 [20]: > 1020 nM | IC50 [21]: 41.9 nM | IC50 [22]: 1.6 nM | IC50 [23]: > 1020 nM | IC50 [24]: 14.6 nM | IC50 [25]: 304 nM | IC50 [26]: 386 nM | IC50 [27]: 43.1 nM | IC50 [28]: > 1020 nM | IC50 [29]: 24.4 nM | IC50 [30]: 511 nM | IC50 [31]: 25.4 nM | IC50 [32]: 317 nM | IC50 [33]: 373 nM | IC50 [34]: 12.1 nM | IC50 [35]: 35.4 nM | IC50 [36]: 583 nM | IC50 [37]: 625 nM | IC50 [38]: < 4 nM | IC50 [39]: 661 nM | IC50 [40]: > 1020 nM | IC50 [41]: 195 nM | IC50 [42]: 37.2 nM | IC50 [43]: < 4 nM | IC50 [44]: < 4 nM | IC50 [45]: < 4 nM | IC50 [46]: < 4 nM | IC50 [47]: > 1020 nM | IC50 [48]: > 1020 nM | IC50 [49]: 200 nM

O=C(O)c1ccc(-c2c[nH]c3ncc(-c4ccccc4)cc23)cc1C1CCCC1 [GSK-650394]
IC50 [1]: > 16000 nM | IC50 [2]: > 16000 nM | IC50 [3]: > 16000 nM | IC50 [4]: > 16000 nM | IC50 [5]: > 16000 nM | IC50 [6]: > 16000 nM | IC50 [7]: > 16000 nM | IC50 [8]: > 16000 nM | IC50 [9]: > 16000 nM | IC50 [10]: > 16000 nM | IC50 [11]: > 16000 nM | IC50 [12]: 1300 nM | IC50 [13]: > 16000 nM | IC50 [14]: > 16000 nM | IC50 [15]: > 16000 nM | IC50 [16]: > 16000 nM | IC50 [17]: > 16000 nM | IC50 [18]: > 16000 nM | IC50 [19]: > 16000 nM | IC50 [20]: > 16000 nM | IC50 [21]: > 16000 nM | IC50 [22]: > 16000 nM | IC50 [23]: > 16000 nM | IC50 [24]: > 16000 nM | IC50 [25]: > 16000 nM | IC50 [26]: > 16000 nM | IC50 [27]: 3520 nM | IC50 [28]: > 16000 nM | IC50 [29]: > 16000 nM | IC50 [30]: > 16000 nM | IC50 [31]: > 16000 nM | IC50 [32]: 15600 nM | IC50 [33]: > 16000 nM | IC50 [34]: > 16000 nM | IC50 [35]: > 16000 nM | IC50 [36]: > 16000 nM | IC50 [37]: > 16000 nM | IC50 [38]: 8960 nM | IC50 [39]: > 16000 nM | IC50 [40]: > 16000 nM | IC50 [41]: 15100 nM | IC50 [42]: > 16000 nM | IC50 [43]: 5730 nM | IC50 [44]: > 16000 nM | IC50 [45]: > 16000 nM | IC50 [46]: 2330 nM | IC50 [47]: > 16000 nM | IC50 [48]: > 16000 nM | IC50 [49]: > 16000 nM
